Key:
[1] = Titration of cysteine with GSAO, DTNB assay; assay type: binding; conditions: cysteine 28 μM, GSAO 0-50 μM, 10 minutes
Experimental: FIG. 11. Titration of DMP or cysteine with GSAO. DMP (15 ? M corresponding to 30 μM thiols) or cysteine (28 μM) was incubated with GSAO (0-50 μM) for 10 minutes. DTNB (950 μM) was then added and the reactions incubated for a further 10 minutes. The concentration of thiol in the reactions was determined from the absorbance of the TNB dianion at 412 nm.
A stock solution of DMP (5 μL, 50 μmol) was dissolved in DMSO (995 μL), giving a concentration of 50 mM DMP, A second dilution of the 50 mM DMP stock solution (10 μL) in pH 7.0 buffer (0.1 M HEPES, 0.3 M NaCl, 1 mM EDTA) (990 μL) gave a working solution of 500 ? M DMP. The activity of the arsenical could then be determined by the titration of varying amounts of arsenical against the DMP working solution (10 μL) in a 96-well microtitre plate, with the total volume made up to 195 μL by addition of buffer. After a 10 minute incubation at room temperature, during which time the solutions were agitated on a plate shaker, 5 μL of a 37.9 mM stock solution of DTNB (15 mg) in DMSO (1 mL) was added, and the plate incubated with shaking for another 10 minutes. The absorbance at 412 nm due to the formation of the TNB dianion was measured using a Molecular Devices Thermomax Plus (Palo Alto, Calif.) microplate reader. The extinction coefficient for the TNB dianion at pH 7.0 is 14, 150 M^−1cm^−1 at 412 nm (Riddles et al., 1983).

[2] = Interaction of GSAO with synthetic, peptide and protein dithiols; assay type: binding; conditions: read-out: dissociation constants, range over the dithiols
Experimental: FIG. 12. Interaction of GSAO with synthetic, peptide and protein dithiols. DMP (A) (15 μM), 6,8-thioctic acid (B) ([…]), dithiothreitol (C) (8.5 μM), TrpCysGlyProCysLys (D) (4.6 μM), TrpCysGlyHisCysLys (E) (5.5 μM) or thioredoxin (F) (4.1 μM corresponding to 20.6 μM thiols) was incubated with GSAO (0-56 μM) for 10 minutes. DTNB (950 μM) was then added and the reactions incubated for a further 10 minutes. The concentration of thiol in the reactions was determined from the absorbance of the TNB dianion at 412 nm. The solid lines represent the best non-linear least squares fit of the data to Equation 1 (A to E) or Equation 2 (F) and have been drawn using the parameter estimates in Table 1. The dotted line in part A represents a simulated titration assuming an infinite affinity of GSAO for the dithiol. GSAO bound to both synthetic, peptide and protein dithiols with dissociation constants in the range 130 nM to 1.4 μM.
Binding of GSAO to dithiols was measured from loss of thiols using the DTNB assay described above. The dissociation constant, Kd, for GSAO binding to dithiols was determined by incubating increasing concentrations of GSAO, I, with a fixed dithiol concentration, [S]T, and measuring the remaining dithiol using DTNB. Note that the concentration of dithiol equals half the TNB concentration. […]

[3] = system: HMEC-1 or HUVE cells; assay: GSAO-B labelling of endothelial cell surface proteins; assay type: cell-based, human; conditions: 100 μM, 30 minutes
Experimental: FIG. 16. Identification of endothelial cell surface proteins that contain closely spaced dithiols). A The surface of HMEC-1 or HUVE cells (2×10^6 cells in 0.4 mL) was labelled with GSAO-B (100 μM) for 30 minutes at room temperature in the absence (lanes 1 and 3) or presence of DMP (400 μM) (lane 2). The endothelial cells were lysed and the lysate from both incubations was resolved on 4-15% SDS-PAGE, transferred to PVDF membrane, and blotted with streptavidin peroxidase to detect the GSAO-B label. The results represent labelling of 3×10^4 HMEC-1 (lanes 1 and 2) of HUVE cells (lane 3). The positions of Mr markers are shown at left. B Densitometry profile of the surface labelled proteins (lanes 1 and 3). The apparent Mr's of the individual proteins are indicated.
Human umbilical vein endothelial cells (HUVEC) (Wall et al., 1978) and the human dermal microvascular endothelial cell line, HMEC-1 (Ades et al., 1992), were harvested and cultured as indicated. Endothelial cells (5×10^6) were detached from culture flasks using 5 mM EDTA in PBS at 37° C., washed 3 times with PBS, resuspended in PBS containing 100 μM of GSAO-B in the absence or presence of 400 μM DMP, and incubated for 30 minutes at room temperature. The cells were washed 3 times with 1 mL of PBS, resuspended in 0.2 mL of ice cold 50 mM Tris/HCl, pH 8 buffer containing 0.5 M NaCl, 1% Triton X-100, 10 μM leupeptin, 2 mM PMSF (Sigma Chemical Company, St, Louis, Mo.), 5 mM EDTA and 10 μM aprotinin (Bayer Australia Ltd., Sydney, NSW), and sonicated on ice. On some occasions the cell lysates were incubated with streptavidin-agarose (Sigma, Castle Hill, NSW) beads (25 μL of packed beads in a total volume of 1 mL) for 60 minutes at 4° C. with rotary mixing. Bound proteins were washed 5 times with 50 mM Tris/HCl, pH 8 buffer containing 0.15 M NaCl and 0.05% Triton X-100, resolved on SDS-PAGE, transferred to PVDF membrane, and the GSAO-B-labeled proteins detected by Western blot.

[4] = target: T1, Thioredoxin (Homo sapiens, UniProt P10599); assay: Inhibition of thioredoxin-mediated reduction of 70 kDa fibronectin fragment; assay type: biochemical; conditions: 10 μM GSAO, 1 μM thioredoxin, 10 minutes
T1 construct: purchased American Diagnostica, Greenwich, Conn; host or cells: E. coli
T1 sequence (P10599 whole entry, the tested form may be a part): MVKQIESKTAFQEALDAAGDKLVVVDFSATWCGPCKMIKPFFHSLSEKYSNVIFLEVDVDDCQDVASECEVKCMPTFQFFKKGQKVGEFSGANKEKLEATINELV
Experimental: FIG. 13. Inhibition of thioredoxin by GSAO. Thioredoxin (1 μM) was incubated with GSAO (0, 1 or 10 μM) for 10 minutes at room temperature in 20 mM Hepes, 0.14 M NaCl, pH 7.4 buffer. The 70 kDa fibronectin fragment (10 μg per mL) was added and incubated for 5 minutes at room temperature. The reactions were labelled with MPB (100 μM) for 10 minutes at 37° C. The MPB was quenched with GSH (200 μM) for 10 minutes at 37° C. followed by iodoacetamide (400 μM) for 10 minutes at room temperature. The MPB-labelled 70 kDa fragment was resolved on 5-15% SDS-PAGE, transferred to PVDF membrane and the MPB detected by blotting with streptavidin peroxidase. The positions of Mr markers are shown at left.
It was observed that thioredoxin reduced one or more protein disulfide bonds in the 70 kDa N-terminal fragment of fibronectin.

NC(CCC(=O)NC(CSCC(=O)Nc1ccc([As]=O)cc1)C(=O)NCC(=O)O)C(=O)O (stereo not shown) [GSAO, 4-(N-(S-glutathionylacetyl)amino)-phenylarsenoxide]
interaction with cysteine in DTNB titration [1]: any interaction of GSAO with cysteine was displaced by DTNB | Kd [2]: 0.13 to 1.4 µM | proteins on the endothelial cell surface that bind the compound [3]: ten distinct proteins | inhibition of thioredoxin activity [4]: completely inhibited
